From the Kinase Knowledgebase extract (Sharma et al. 2016) come the findings set out here.

The target in assay [1] is EGFR (human) (UniProt P00533). The note with it: kb.
The target of assay [2] is MAPK14 (UniProt Q16539). In words: p38-alpha Inhibition.
Assay [3] has as its target ROCK2 (human) (UniProt O75116). In words: Assessment of ROCK2 Kinase Activity (ProQinase Setup).
Assay [4] addresses EGFR (human) (UniProt P00533). The note with it: a431.
Assay [5] addresses EGFR (mouse) (UniProt P00533). To be noted: mk.
Assay [6] addresses ROCK2 (human) (UniProt O75116). Kind of assay: Assessment of ROCK2 Kinase Activity (Fluorescence Polarization Assay). For orientation: Polarisation of emitted light reports the rotation of a fluorescent probe.
Assay [7] concerns the target CDK2 (human) (UniProt P24941). Kind of assay: Enzyme Assay.
The target of assay [8] is CDK2 (human) (UniProt P24941). In words: Enzyme Assay. This is another data set of the same source.
In assay [9] the target is PIK3CA (human) (UniProt P42336). Kind of assay: Assessment of PIK3CA Kinase Activity in NZB5 Cells.
Chain of PIK3CA (human) (P42336 whole entry, looked up): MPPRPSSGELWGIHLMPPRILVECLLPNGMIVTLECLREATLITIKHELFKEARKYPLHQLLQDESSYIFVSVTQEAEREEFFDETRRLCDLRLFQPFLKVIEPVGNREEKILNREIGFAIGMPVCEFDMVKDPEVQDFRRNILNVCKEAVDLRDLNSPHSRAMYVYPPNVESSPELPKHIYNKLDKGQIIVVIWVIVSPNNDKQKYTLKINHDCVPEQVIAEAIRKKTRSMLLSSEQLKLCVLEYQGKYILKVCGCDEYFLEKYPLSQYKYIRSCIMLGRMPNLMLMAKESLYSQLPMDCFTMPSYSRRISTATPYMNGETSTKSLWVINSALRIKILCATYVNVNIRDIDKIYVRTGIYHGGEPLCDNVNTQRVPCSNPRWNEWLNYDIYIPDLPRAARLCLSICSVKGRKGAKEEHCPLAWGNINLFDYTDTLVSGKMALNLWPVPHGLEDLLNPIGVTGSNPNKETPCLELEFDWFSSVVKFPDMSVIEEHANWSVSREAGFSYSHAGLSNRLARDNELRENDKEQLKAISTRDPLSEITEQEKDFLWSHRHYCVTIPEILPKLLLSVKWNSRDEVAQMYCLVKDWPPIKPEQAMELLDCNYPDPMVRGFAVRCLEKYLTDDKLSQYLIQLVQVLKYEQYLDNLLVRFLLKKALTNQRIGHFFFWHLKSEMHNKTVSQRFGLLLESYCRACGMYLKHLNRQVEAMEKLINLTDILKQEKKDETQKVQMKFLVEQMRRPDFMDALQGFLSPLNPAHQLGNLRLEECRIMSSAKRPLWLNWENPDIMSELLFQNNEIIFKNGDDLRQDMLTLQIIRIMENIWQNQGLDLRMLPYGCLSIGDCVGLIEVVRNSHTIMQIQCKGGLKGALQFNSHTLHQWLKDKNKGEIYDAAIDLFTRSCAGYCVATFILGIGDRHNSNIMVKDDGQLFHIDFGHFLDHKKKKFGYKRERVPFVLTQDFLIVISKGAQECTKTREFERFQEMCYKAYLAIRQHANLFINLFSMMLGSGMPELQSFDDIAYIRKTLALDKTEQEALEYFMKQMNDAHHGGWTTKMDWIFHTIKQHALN
Assay [10] has as its target MAPK14 (human) (UniProt Q16539). In words: Inhibition of TNF-alpha Production in PBMC Cells.
Assay [11] deals with EGFR (murine) (UniProt P00533). To be noted: nih 3t3.
Chain of EGFR (murine) (P00533 whole entry, looked up): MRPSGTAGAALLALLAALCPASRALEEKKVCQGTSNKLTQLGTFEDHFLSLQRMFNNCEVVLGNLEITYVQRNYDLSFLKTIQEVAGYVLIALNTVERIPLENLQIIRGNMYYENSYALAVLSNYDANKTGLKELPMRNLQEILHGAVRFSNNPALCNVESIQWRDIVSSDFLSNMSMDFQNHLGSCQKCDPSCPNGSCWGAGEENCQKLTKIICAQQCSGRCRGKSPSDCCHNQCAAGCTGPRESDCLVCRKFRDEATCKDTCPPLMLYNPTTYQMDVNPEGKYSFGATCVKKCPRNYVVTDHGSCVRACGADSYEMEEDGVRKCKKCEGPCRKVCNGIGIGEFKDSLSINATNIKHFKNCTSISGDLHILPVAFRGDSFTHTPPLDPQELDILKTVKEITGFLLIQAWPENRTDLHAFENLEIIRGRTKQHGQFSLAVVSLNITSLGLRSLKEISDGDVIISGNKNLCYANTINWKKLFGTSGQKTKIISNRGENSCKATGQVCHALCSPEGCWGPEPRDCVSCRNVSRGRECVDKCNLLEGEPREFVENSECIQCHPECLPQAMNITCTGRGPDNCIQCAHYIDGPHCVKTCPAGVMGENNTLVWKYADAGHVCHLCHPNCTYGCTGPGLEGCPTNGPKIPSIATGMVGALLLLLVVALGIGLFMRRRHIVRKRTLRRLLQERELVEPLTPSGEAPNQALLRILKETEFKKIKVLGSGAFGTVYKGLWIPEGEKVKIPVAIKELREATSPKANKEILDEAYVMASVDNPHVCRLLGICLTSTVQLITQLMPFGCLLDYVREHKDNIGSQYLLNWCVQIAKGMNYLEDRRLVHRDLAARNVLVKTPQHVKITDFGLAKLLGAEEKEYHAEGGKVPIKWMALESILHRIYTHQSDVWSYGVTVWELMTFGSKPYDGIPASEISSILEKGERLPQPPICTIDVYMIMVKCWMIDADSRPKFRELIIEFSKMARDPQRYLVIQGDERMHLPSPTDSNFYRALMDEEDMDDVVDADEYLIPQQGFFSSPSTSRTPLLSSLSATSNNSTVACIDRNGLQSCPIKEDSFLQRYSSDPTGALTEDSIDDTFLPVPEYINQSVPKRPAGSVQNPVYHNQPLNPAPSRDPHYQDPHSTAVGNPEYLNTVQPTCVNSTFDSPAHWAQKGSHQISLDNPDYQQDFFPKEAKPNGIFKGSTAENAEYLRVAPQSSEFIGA
The target of assay [12] is EGFR (human) (UniProt P00533). To be noted: A431.
For assay [13], the target named is EGFR (UniProt P00533).
Chain of EGFR (P00533 whole entry, looked up): as above
Assay [14] concerns the target EGFR (human) (UniProt P00533).
In assay [15] the target is MAPK14 (UniProt Q16539). Kind of assay: Assessment of MAPK14 Kinase Activity.
Assay [16] has as its target EGFR (human) (UniProt P00533). This is another data set of the same source.
Assay [17] addresses MAPK14 (UniProt Q16539). Kind of assay: p38 Kinase Inhibition.
The target of assay [18] is EGFR (UniProt P00533). The source holds these as a separate data set.
Assay [19] concerns the target EGFR (UniProt P00533). The source holds these as a separate data set.
Assay [20] has as its target PIK3CA (human) (UniProt P42336). Kind of assay: Assessment of PI3K Dependent Phosphorylation of p-AKT(T308) in PC3 Cells. To be noted: pc-3.

Chain of EGFR (human) (P00533 whole entry, looked up): as above
Chain of MAPK14 (human) (Q16539 whole entry, looked up): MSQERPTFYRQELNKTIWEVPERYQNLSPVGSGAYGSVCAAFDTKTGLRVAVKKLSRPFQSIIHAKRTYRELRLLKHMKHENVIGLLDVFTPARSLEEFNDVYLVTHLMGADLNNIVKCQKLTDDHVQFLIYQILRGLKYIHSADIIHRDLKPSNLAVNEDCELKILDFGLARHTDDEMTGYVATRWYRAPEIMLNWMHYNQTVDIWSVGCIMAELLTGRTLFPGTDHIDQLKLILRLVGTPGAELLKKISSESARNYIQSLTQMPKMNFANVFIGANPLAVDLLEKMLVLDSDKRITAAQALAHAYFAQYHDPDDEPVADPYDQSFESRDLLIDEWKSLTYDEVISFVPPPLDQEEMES
Chain of MAPK14 (Q16539 whole entry, looked up): as above

Usually IC50 stands for the concentration at which inhibition is half-maximal. High values mean lower potency, low ones higher potency. In assay [1], `COC(=O)N1CCC(Oc2cc3c(Nc4cccc(Cl)c4F)ncnc3cc2OC)CC1` gave an IC50 of 0.035 µM.

Take `ON1=CC=C(C=C1)c2[nH]c3cccnc3c2c4ccc(F)cc4`: in assay [2], the IC50 was 2.5 µM. Turning to `NCc1ccc(C(=O)Nc2ccncc2F)cc1-c1cccc(C(=O)OC[C@H]2CCCO2)c1`, the IC50 in assay [3] was 0.1 to 1 µM. In turn, `COn1c(-c2ccncc2)c(-c2ccc(F)cc2)c2ncccc21` returned an IC50 in [2] of 0.068 µM. On to `NCc1ccc(C(=O)Nc2ccncc2F)cc1-c1cccc(CC(=O)OC2CC3CCC2C3)c1` (stereo not given), for which the IC50 in assay [3] lay within 0.1 to 1 µM. The term EC50 denotes the concentration that produces a half-maximal response. Higher therefore signals lower potency in that assay. `COCCOc1cc2ncnc(Nc3ccc4[nH]ccc4c3)c2cc1NC(=O)C=C1CCNCC1` yielded an EC50 in assay [4] of 0.013 µM. `COc1cc(O)c2c(=O)c(-c3cccc(Cl)c3)coc2c1`: the IC50 in assay [5] amounted to 45.2 µM. In other words, the double-digit micromolar range. As to `Cc1ccc(S(=O)(=O)CCOC(=O)c2cccc(-c3cc(C(=O)Nc4ccncc4)ccc3C(C)N)c2)cc1` (stereo not given), the IC50 in [6] lay within 0.1 to 1 µM. With `CC[C@H](CO)Nc1cc(NCc2ccc(-c3ccccn3)cc2)c2ncn(C(C)C)c2n1`, the IC50 in [7] stood at 0.36 µM; in assay [8], 0.25 µM. The compound `Cc1ccc([N+](=O)[O-])cc1S(=O)(=O)N(C)N=Cc1cnn2cccc(Br)c12` gave an IC50 in [9] of more than 20 µM.

Take `COc1cc2ncnc(Nc3cccc(Cl)c3F)c2cc1OC1CCN(C(=O)OCCN2CCCC2)CC1`: the IC50 in assay [1] stood at 0.009 µM. The compound `COc1cc2c(Nc3cc(NC(=O)c4cccc(N(C)C)c4)ccc3C)ncnc2cc1OCCCN1CCOCC1` returned a concentration for half-maximal inhibition (IC50) in [10] of 2 µM. In other words, the single-digit micromolar range. As for `CCOCn1c(-c2ccncc2)c(-c2ccc(F)cc2)c2ncccc21`, the IC50 in [2] was 0.021 µM. With `O=c1[nH]c2ccc(Sc3ccccc3)nc2[nH]1`, in assay [11], the IC50 was more than 100 µM. Take `C[C@H](Nc1[nH]cnc2c3ccccc3nc1-2)c1ccccc1`: the IC50 in [12] was more than 100 µM. For `CCC(=O)Nc1cc(Nc2ncnc3cc(OC)c(OC)cc23)ccc1F`, in [10], the IC50 was found to be 3.2 µM. In other words, the single-digit micromolar range. Compound `C[C@@H](Nc1ncnc2ccccc12)c1ccccc1` displayed an IC50 in [12] of 0.086 µM. As to `COc1cc(O)c2c(=O)c(-c3cccc(Cl)c3)cn(CCc3ccccc3)c2c1`, the IC50 in assay [5] is 4.93 µM. In the case of `CN(C(=O)NCCCl)c1ccc2ncnc(Nc3cccc(Cl)c3)c2c1`, the IC50 in [13] turned out to be 0.081 µM. Compound `O=C1C(CO)=C(CO)C(=O)c2c(O)ccc(O)c21` returned an IC50 in assay [14] of 15 µM. Regarding `CN(C(=O)NCCCl)c1ccc2ncnc(Nc3cccc(Br)c3)c2c1`, in assay [13], the IC50 is 0.156 µM.

Take `CS(=O)(=O)N1CCC(Nc2ncc3c(n2)N2CCN=C2C(c2ccccc2Cl)=C3)CC1`: the IC50 in assay [15] came to 0.0027 µM. Compound `O=C(/C=C/N1CC2CC1CO2)Nc1cc2c(Nc3ccc(F)c(Cl)c3)ncnc2cc1O[C@H]1CCOC1` (stereo not given in full) came in with an IC50 in assay [16] of 0.0005 µM. `CCOC(=O)Nc1nc2ccc(Oc3ccccc3)nc2[nH]1` registered an IC50 in assay [11] of more than 100 µM.

As to `COc1cc2ncnc(N3CCN(C(=S)NCc4ccc5c(c4)OCO5)CC3)c2cc1OC`, the IC50 in assay [17] is more than 30 µM. `Cc1cccc(Nc2ncnc3ccc(N)cc23)c1` showed an IC50 in [13] of 1 µM. `Cc1cccc(N(C)c2ncnc3[nH]ncc23)c1`: in [18], the IC50 was more than 50 µM. `O=C(/C=C/CN1CC2CC1CO2)Nc1cc2c(Nc3ccc(F)c(Cl)c3)ncnc2cc1OC1CCCC1` (stereo not given) came in with an IC50 in assay [16] of 0.0005 µM. Compound `COC(=O)Nc1nc2ccc(Oc3ccccc3)nc2[nH]1` showed an IC50 in assay [11] of more than 100 µM. `COc1cc2ncnc(Nc3ccc(C)c(NC(=O)c4ccccc4)c3)c2cc1OC`: in assay [10], the IC50 was 3.6 µM. The compound `COC(=O)c1cc2c(-c3cc(C(=O)Nc4ccncc4)ccc3C(C)N)cccc2[nH]1` (stereo not given) yielded an IC50 in assay [6] of 0.1 to 1 µM.

Regarding `Nc1ccc(-c2cc3c(N4CCCc5ccccc54)ncnc3[nH]2)cc1`, the half-maximal inhibitory concentration (IC50) in assay [19] is 0.026 µM. `C[C@H](Nc1ncnc2ccccc12)c1ccccc1` yielded an IC50 in assay [12] of more than 10 µM.

The compound `Cc1ccc([N+](=O)[O-])cc1S(=O)(=O)N(C)N=Cc1cnn2cc(Br)ccc12` returned an IC50 in [9] of more than 20 µM. Turning to `O[C@H]1CC[C@H](Nc2ncc3c(n2)N2CCN=C2N(c2ccccc2Cl)C3)CC1`, in assay [15], the IC50 came to 6.62 µM. The compound `CCCOC(=O)c1cc(-c2cc(C(=O)Nc3ccncc3)ccc2C(C)N)c[nH]1` (stereo not given) yielded an IC50 in assay [6] of less than 0.1 µM. Take `CSc1c(-c2ccncc2)nc(-c2ccc(NC(=O)Nc3ccc(C(N)=O)cc3)cc2)nc1N1CCOCC1`: the half-maximal inhibitory concentration (IC50) in assay [20] was less than 0.01 µM.

For the compound `CC[C@H](CO)Nc1cc(NCc2ccccc2)c2ncn(C(C)C)c2n1`, the IC50 in assay [7] worked out at 0.3 µM; in assay [8], 0.18 µM.
